This is an account of results in patent US8247351B2, “Insecticidal compositions having improved effect” (Bayer Cropscience AG, priority 2005, dated 2012).

Structures are written as SMILES.

What all share (format): in vivo
In experiment [1] the test system is Myzus persicae. The experiment is described as follows: Myzus persicae test, Example F (sprayed to runoff, ammonium salt plus penetrant). The protocol:
(§1) Solvent: 7 parts by weight dimethylformamide
(§2) Emulsifier: 2 parts by weight alkylaryl polyglycol ether
An appropriate preparation of active ingredient is prepared by mixing 1 part by weight of active ingredient with the stated amounts of solvent and emulsifier and diluting the concentrate with water to the desired concentration. For the application with ammonium salts or phosphonium salts and penetrant (rapeseed oil methyl ester 500 EW), they are each added in a concentration of 1000 ppm to the spray liquor.
After the desired time the destruction in % is ascertained. 100% means that all of the animals have been killed; 0% means that no animals have been killed.

Experiment [2] concerns Aphis gossypii. Briefly: Aphis gossypii test, Example G (sprayed to runoff, ammonium salt plus penetrant). How it is done: as §1, §2
An appropriate preparation of active ingredient is prepared by mixing 1 part by weight of active ingredient with the stated amounts of solvent and emulsifier and diluting the concentrate with emulsifier-containing water to the desired concentration. For the application with ammonium salts or phosphonium salts and penetrants (rapeseed oil methyl esters 500 EW), they are each added in a concentration of 1000 ppm a.i. to the spray liquor.
(§3) Cotton plants (Gossypium hirsutum) heavily infested by the cotton aphid (Aphis gossypii) are sprayed to runoff with the preparation of active ingredient at the desired concentration.
(§4) After the desired time the destruction in % is ascertained. 100% means that all of the aphids have been killed; 0% means than no aphids were killed.

In experiment [3] the test system is Myzus persicae. The experiment is described as follows: Myzus persicae test, Example D (sprayed to runoff, ammonium salt boosting). The protocol: as §1, §2
An appropriate preparation of active ingredient is prepared by mixing 1 part by weight of active ingredient with the stated amounts of solvent and emulsifier and diluting the concentrate with water to the desired concentration. For the application with ammonium salts or phosphonium salts, these salts are added in a concentration of 1000 ppm to the spray liquor.
Paprika plants (Capsicum annum) heavily infested by the green peach aphid (Myzus persicae) are treated by being. sprayed to runoff with the preparation of active ingredient at the desired concentration. After the desired time the destruction in % is ascertained. 100% means that all of the animals have been killed; 0% means that no animals have been killed.

For experiment [4], the system named is Aphis gossypii. Briefly: Aphis gossypii test, Example E (sprayed to runoff, ammonium salt boosting). How it is done:
as §1, §2
An appropriate preparation of active ingredient is prepared by mixing 1 part by weight of active ingredient with the stated amounts of solvent and emulsifier and diluting the concentrate with emulsifier-containing water to the desired concentration. For the application with ammonium salts or phosphonium salts, these salts are added in a concentration of 1000 ppm to the spray liquor.
as §3, §4

Where [5] appears, read: 0.8 ppm active ingredient, +AS (1000 ppm).
Where [6] appears, read: 0.8 ppm active ingredient, +RME (1000 ppm).
The mark [7] stands for this setting: 0.8 ppm active ingredient, +RME +AS (each 1000 ppm).
The mark [8] stands for this setting: 0.8 ppm active ingredient, no additive.
Where [9] appears, read: 4 ppm active ingredient, +AS (1000 ppm).
Where [10] appears, read: 4 ppm active ingredient, no additive.
The mark [11] stands for this setting: 20 ppm active ingredient, +AS (1000 ppm).
The mark [12] stands for this setting: 20 ppm active ingredient, no additive.
[13] abbreviates: 4 ppm active ingredient, +RME (1000 ppm).
Setting [14] is: 4 ppm active ingredient, +RME +AS (each 1000 ppm).
Where [15] appears, read: 20 ppm active ingredient, +RME (1000 ppm).
Where [16] appears, read: 20 ppm active ingredient, +RME +AS (each 1000 ppm).

For `COc1cc(C)cc(C)c1-c1c(O)c(C)c(-c2ccccn2)oc1=O` [Example I-4-a-1], the “Degree of destruction/% after 6 days” value in experiment [1] (setting [5]) came to 5%; in experiment [1] (setting [6]), 0%; in experiment [1] (setting [7]), 40%; in experiment [1] (setting [8]) it was 0%; in experiment [2] (setting [5]) it was 15%; in experiment [2] (setting [6]), 0%. In addition, the “Degree of destruction/% after 6 days” value in experiment [2] (setting [7]) worked out at 45%; in experiment [2] (setting [8]) it was 0%; in experiment [3] (setting [9]) it was 45%; in experiment [3] (setting [10]), 0%; in experiment [3] (setting [11]), 95%; in experiment [3] (setting [12]), 75%. For the same compound, the “Degree of destruction/% after 6 days” value turned out to be 40% in experiment [4] (setting [9]) and 0% in experiment [4] (setting [10]).

`Cc1cc(C)c(C2=C(O)C3(CCC(C)CC3)NC2=O)c(C)c1` (centres unmarked) [Example I-1-a-8]: the “Degree of destruction/% after 6 days” value in experiment [1] (setting [5]) is 55%; in experiment [1] (setting [6]), 60%; in experiment [1] (setting [7]), 80%; in experiment [1] (setting [8]), 20%; in experiment [2] (setting [5]) it was 40%; in experiment [2] (setting [6]), 20%. Moreover, the “Degree of destruction/% after 6 days” value in experiment [2] (setting [7]) is listed as 60%; in experiment [2] (setting [8]), 0%; in experiment [3] (setting [5]) it was 55%; in experiment [3] (setting [8]), 20%; in experiment [4] (setting [5]), 40%; in experiment [4] (setting [8]), 0%.

Consider `COC1CCC2(CC1)NC(=O)C(c1cc(C)ccc1Br)=C2O` (centres unmarked) [Example I-1-a-11], for which the “Degree of destruction/% after 6 days” value in experiment [1] (setting [9]) is 5%; in experiment [1] (setting [13]), 55%; in experiment [1] (setting [14]), 99%; in experiment [1] (setting [10]), 0%; in experiment [2] (setting [9]) it was 35%; in experiment [2] (setting [13]), 45%. Moreover, the “Degree of destruction/% after 6 days” value in experiment [2] (setting [14]) worked out at 80%; in experiment [2] (setting [10]), 5%; in experiment [3] (setting [11]) it was 70%; in experiment [3] (setting [12]) it was 0%; in experiment [4] (setting [9]), 35%; in experiment [4] (setting [10]), 5%. For the same compound, the “Degree of destruction/% after 6 days” value in experiment [4] (setting [11]) is 80%; in experiment [4] (setting [12]), 45%.

In the case of `Cc1cc(Br)cc(C)c1-c1c(O)c(C)c(-c2ccccn2)oc1=O` [Example I-4-a-3], the “Degree of destruction/% after 6 days” value in experiment [1] (setting [5]) is recorded as 5%; in experiment [1] (setting [6]) it was 20%; in experiment [1] (setting [7]), 98%; in experiment [1] (setting [8]) it was 0%; in experiment [2] (setting [5]) it was 40%; in experiment [2] (setting [6]), 0%. Moreover, the “Degree of destruction/% after 6 days” value in experiment [2] (setting [7]) was 80%; in experiment [2] (setting [8]) it was 0%; in experiment [3] (setting [9]), 70%; in experiment [3] (setting [10]), 5%; in experiment [3] (setting [11]) it was 85%; in experiment [3] (setting [12]) it was 40%. Besides, the “Degree of destruction/% after 6 days” value in experiment [4] (setting [5]) was 40%; in experiment [4] (setting [8]), 0%; in experiment [4] (setting [9]) it was 70%; in experiment [4] (setting [10]), 25%.

For `Cc1ccc(-c2ccc(Cl)cc2)cc1C1=C(O)C(C)(C)C(C)(C)OC1=O` [Example I-10-a-1], the “Degree of destruction/% after 6 days” value was 5% in experiment [1] (setting [9]); 20% in experiment [1] (setting [13]); 55% in experiment [1] (setting [14]); 0% in experiment [1] (setting [10]); 25% in experiment [1] (setting [11]); 65% in experiment [1] (setting [15]). The “Degree of destruction/% after 6 days” value in experiment [1] (setting [16]) is 99%; in experiment [1] (setting [12]), 0%; in experiment [2] (setting [11]) it was 45%; in experiment [2] (setting [15]), 45%; in experiment [2] (setting [16]), 70%; in experiment [2] (setting [12]), 0%. In addition, the “Degree of destruction/% after 6 days” value in experiment [3] (setting [11]) came out at 25%; in experiment [3] (setting [12]), 0%; in experiment [4] (setting [11]), 45%; in experiment [4] (setting [12]), 0%.

`Cc1ccc(-c2ccc(Cl)cc2)cc1C1=C(O)C(C)(C)OC1=O` [Example I-2-a-3]: the “Degree of destruction/% after 6 days” value is on record as 15% in experiment [1] (setting [11]); 35% in experiment [1] (setting [15]); 80% in experiment [1] (setting [16]); 0% in experiment [1] (setting [12]); 5% in experiment [2] (setting [9]); 0% in experiment [2] (setting [13]). Further, the “Degree of destruction/% after 6 days” value in experiment [2] (setting [14]) was determined as 15%; in experiment [2] (setting [10]), 0%; in experiment [2] (setting [11]), 30%; in experiment [2] (setting [15]), 0%; in experiment [2] (setting [16]) it was 65%; in experiment [2] (setting [12]), 0%. In addition, the “Degree of destruction/% after 6 days” value in experiment [3] (setting [11]) was determined as 15%; in experiment [3] (setting [12]), 0%; in experiment [4] (setting [11]), 30%; in experiment [4] (setting [12]), 0%.

With `COc1cc(C)cc(C)c1C1=C(O)C2(CCC(OC)CC2)OC1=O` (centres unmarked) [Example I-2-a-2], the “Degree of destruction/% after 6 days” value was 25% in experiment [1] (setting [5]); 15% in experiment [1] (setting [6]); 99% in experiment [1] (setting [7]); 0% in experiment [1] (setting [8]); 70% in experiment [2] (setting [5]); 50% in experiment [2] (setting [6]). For the same compound, the “Degree of destruction/% after 6 days” value turned out to be 95% in experiment [2] (setting [7]); 30% in experiment [2] (setting [8]); 25% in experiment [3] (setting [5]); 0% in experiment [3] (setting [8]); 90% in experiment [3] (setting [9]); 65% in experiment [3] (setting [10]). The “Degree of destruction/% after 6 days” value in experiment [4] (setting [5]) stood at 70%; in experiment [4] (setting [8]), 30%; in experiment [4] (setting [9]), 95%; in experiment [4] (setting [10]), 85%.
